Test results reported in patent US20200017823A1, “HYDROGEL COMPOSITIONS FOR USE IN NEURAL CELL EXPANSION AND DIFFERENTIATION” (Wisconsin Alumni Research Foundation, priority 2018, published 2020).
Read-outs that look alike come from different tables or passages of the source.

What was measured:
[1] = tested on: iCell Neurons; assay: High-content imaging with skeleton network analysis: neurite branches versus cell viability
Method: All data points are mean±SEM. FIG. 14A: Dexamethasone. FIG. 14B: Colchicine.
Commercially available human iPSC-derived neurons (iCell Neurons) and their supporting media were purchased from Cellular Dynamics International (CDI, Madison, Wis.). Previously characterized iCell Neurons represent a mixture of post-mitotic GABAergic and glutamatergic neurons with >95% purity. The cells were received, frozen, thawed, and plated following a protocol recommended by CDI. Briefly, cells were plated on poly-L-lysine pre-coated 384 well plates (Greiner Bio-One) with PEG-NB hydrogels, 3.3 μg/ml laminin, or 60-120 μg/ml […]®.

[2] = tested on: iCell Neurons; assay: Synthetic hydrogel-based network formation/inhibition assay (total network area); format: cell-based, human; details: PLL/Laminin and MATRIGEL screening systems
Text: Total network area was quantified by thresholding neurite processes and cell bodies stained with immunofluorescent tags for βIII-tubulin and MAP2. The resulting data was compared using the Z′ statistic to assess the accuracy of the synthetic hydrogel, PLL/Laminin, and MATRIGEL® screening systems in distinguishing neuronal networks disrupted by the known microtubule inhibitor Colchicine from non-inhibited networks.

Compound	neurite branches / neurite growth ([1]; synthetic substrate, treated after 120-hour growth, exposed 120 hours, media replenished daily, compared to cell viability)	neuronal network (total network area, βIII-tubulin and MAP2 stain) [2]	cell viability [1]	neurite branches / neurite growth [1]
COc1cc2c(c(OC)c1OC)-c1ccc(OC)c(=O)cc1[C@@H](NC(C)=O)CC2 [Colchicine]	significant reductions	disrupted		
NC(=O)N1c2ccccc2C=Cc2ccccc21 [Carbamazepine]			reduced viability	apparent inhibition
C[C@@H]1C[C@H]2[C@@H]3CCC4=CC(=O)C=C[C@]4(C)[C@@]3(F)[C@@H](O)C[C@]2(C)[C@@]1(O)C(=O)CO [Dexamethasone]				significant reductions
